# Measurements from US11013710B2, “Synergistic compositions of bioactive agents for optimizing cellular health” (CELAGENEX RESEARCH (INDIA) PVT. LTD., priority 2018, dated 2021).
# Experiments:
# HepG2 cells = experiment: DNA fragmentation (DNA ladder assay) in HepG2 cells; assay type: cell-based, Human
# Protocol: FIG. 3 depicts DNA ladder assay of test substances on HepG2 cell line; L=100 bp Ladder, Lane 1=AAPH (1 mM), Lane 2=cell control, Lane 3=G3 (250 μg/ml), Lane 4=G4(250 μg/ml), Lane 5=G5 (5:125-250 μg/ml), Lane 6=G3+AAPH, Lane 7=G4+AAPH, Lane 8=G5+AAPH
# HepG2 cells (3×10^6/ml) were seeded into 60 mm petri dishes and incubated at 37° C. with 5% CO2 atmosphere for 24 h. The cells were washed with medium and were treated with extract, standard substance and incubated at 37° C., 5% CO2 for 24 hrs. At the incubation time ended, the chromosomal DNA of cancer cells was prepared with G Biosciences, USA apoptotic DNA ladder kit. Total genomic DNA was extracted and resolved on a 1% agarose gel. Apoptotic DNA fragmentation was visualized by ethidium bromide staining under UV transilluminator and photographed. (FIG. 3)
# TNF-Alpha = experiment: Serum TNF-Alpha levels in carrageenan paw edema rats; assay type: in vivo, Rat; details: for TNF-Alpha: rat serum after paw volume measurement, Mean±SEM; for Serum TNF-Alpha compared with positive control (G2) / Percentage inhibition over control (serum TNF-Alpha): rat serum; for Serum TNF-Alpha compared with positive control (G2): result in words; for Percentage inhibition over control (serum TNF-Alpha): vs positive control
# Protocol: (§1) Acute anti inflammatory activity was measured using carrageenan induced rat paw edema model. Acute inflammation was induced by the sub planter administration of 0.1 ml of 1% carrageenan (0.9% NaCl solution) in the right hind paw of the rats. Group 1 was treated with normal saline. Group 2 positive control was treated with normal saline (with paw edema induction). Group 3, Group 4 and Group 5 were treated with test substance (G1—0.512 mg/kg, G2—12.33 mg/kg and G3-0.512 mg/kg+12.33 mg/kg bw) respectively. Excluding control group, all groups were pretreated 1 hr before eliciting paw edema. The linear paw circumference was measured at Time intervals: 0, 30, 60, 120, 180 and 240 mins. The perimeter of paw was measured by using vernier calipers. After the completions of the paw volume measurement animals were anesthetized and blood was collected for biochemical parameter analysis. The values were expressed in Mean±SEM. The significance of in vivo data was analyzed by One way anova followed by Dunnet test. P<0.05 was considered as statistically significant
# Nrf2 = experiment: In vitro gene expression of Nrf2 (RT-PCR) in HepG2; assay type: cell-based, Human; details: HepG2, 250 μg/ml; cell control 1.00
# Protocol: Nrf2 were estimated for the test substance by gene expression method, where the level of expression of Nrf2 expression on Human Hepatocytes (HepG2) was determined with respect to untreated HepG2 cells. The HepG2 cells treated with drug were subjected to cell lysis by treating with Tri-extract reagent. Chloroform was added, to isolate the total RNA from the sample and subjected for centrifugation. […] After the incubation followed by centrifugation, appropriate volume of ethanol was added to resuspend the pellet. After incubation and centrifugation, the pellet was air dried and appropriate volume of TAE buffer was added. […] The cDNA thus synthesized was taken up for Polymerase chain reaction (PCR) for the amplification of Nrf2 and Glyceraldehyde 3-phosphate dehydrogenase GAPDH (internal control). The mRNA expression levels of Nrf2 were determined using semi-quantitative reverse transcriptase-polymerase chain reaction (RT-PCR). 50 μl of the reaction mixture was subjected to PCR for amplification of Nrf2. cDNAs using specifically designed primers procured from Eurofins, India and as an internal control GAPDH (House keeping gene) was co-amplified with each reaction. Nrf2: 95° C. for 5 min followed by 35 cycles of denaturation at 95° C. for 30 seconds, annealing Tm for 30 seconds and extension at 72° C. for 45 seconds. This was followed by final extension at 72° C. for 10 min.
# [1] = system: carrageenan induced rat paw edema; experiment: Carrageenan induced rat paw edema model (acute anti-inflammatory activity); assay type: in vivo; details: for % inhibition of paw edema at 6th hr.: pretreated 1 hr before, L-EGT 0.512 mg/kg, NMN chloride 12.33 mg/kg, combination 0.512+12.33 mg/kg bw, vs positive control; for paw edema compared with Positive control group (G2): result in words
# Protocol: as §1, with “In study thirty (30) rats, were divided into total […] groups. […] G3-G4 groups are referred as test substances. Acute anti” for “Acute anti”, “paw edema. […] The perimeter” for “paw edema. The linear paw circumference was measured at Time intervals: 0, 30, 60, 120, 180 and 240 mins. The perimeter”, “analysis. The anti-inflammatory activity was calculated by following formula % inhibition of edema=((T−T0)/T)×100 T: Thickness of paw in positive control group T0: Thickness of paw edema in the test compound treated groups. The values were” for “analysis. The values were”
# IL-6 = experiment: Serum IL-6 levels in carrageenan paw edema rats; assay type: in vivo, Rat; details: for IL-6: rat serum after paw volume measurement, Mean±SEM; for Serum interleukin-6 compared with positive control (G2) / Percentage inhibition over control (serum IL-6): rat serum; for Serum interleukin-6 compared with positive control (G2): result in words; for Percentage inhibition over control (serum IL-6): vs positive control
# Protocol: as §1
# HepG2 cell line = experiment: In vitro cytotoxicity (MTT) against HepG2 cell line; assay type: cell-based, Human; details: 72 h
# Protocol: In-vitro cytotoxicity of the nutrients, G3, G4 and G5 were tested against HepG2 cell line. Nutrients were taken at concentrations ranging from 1000 μg/ml to 62.5 μg/ml to determine the percentage growth inhibition of individual substance on HepG2 cell line. The samples G3 and G4 produced a CTC50 value of above 1000 μg/ml. […] [Journal of Immunological Methods, 1986; 89:271-277].
# The in vitro cytotoxicity was performed for samples G3, G4 and G5 on HepG2 to find toxic concentration and to determine the apoptotic activity of G3, G4 and G5.
# For cytotoxicity studies, 10 mg of test substance was separately dissolved and volume was made up with MEM supplemented with 2% inactivated FBS to obtain a stock solution of 1 mg/ml concentration and sterilized by 0.22μ syringe filtration. Serial two fold dilutions were prepared from this for carrying out cytotoxic studies.
# HepG2 (Human Hepatocyte) cell line was procured from National Centre for Cell Sciences (NCCS), Pune, India. Stock cells were cultured in MEM supplemented with 10% inactivated Fetal Bovine Serum (FBS), penicillin (100 IU/ml), streptomycin (100 μg/ml) and amphotericin B (5 μg/ml) in an humidified atmosphere of 5% CO2 at […] until confluent. The cells were dissociated with TPVG solution (0.2% trypsin, 0.02% EDTA, 0.05% glucose in PBS). The stock cultures were grown in 25 cm^2 culture flasks and all experiments were carried out in 96 microtitre plates (Tarsons India Pvt. Ltd., Kolkata, India).
# The monolayer cell culture was trypsinized and the cell count was adjusted to 100,000 cells/ml using DMEM-HG containing 10% FBS. To each well of the 96 well microtitre plate, 0.1 ml of the diluted cell suspension was added. After 24 h, when a partial monolayer was formed, the supernatant was flicked off, washed the monolayer once with medium and 100 μl of different test concentrations of test substances were added on to the partial monolayer in microtitre plates. The plates were then incubated at 37° C. for 3 days in 5% CO2 atmosphere, and microscopic examination was carried out and observations were noted every 24 h interval. After 72 h, the substance solutions in the wells were discarded and 50 μl of MTT in PBS was added to each well. The plates were gently shaken and incubated for 3 h at 37° C. in 5% CO2 atmosphere. The supernatant was removed and 100 μl of propanol was added and the plates were gently shaken to solubilize the formed formazan. The absorbance was measured using a microplate reader at a wavelength of 540 nm. The percentage growth inhibition was calculated using the standard formula and concentration of test substance needed to inhibit cell growth by 50% (CTC50) values is generated from the dose-response curves for each cell line.
# For cytotoxicity studies, 10 mg of test substance powder was separately dissolved and volume was made up with DMEM supplemented with 2% inactivated FBS to obtain a stock solution of 10 mg/ml concentration and sterilized by 0.22μ syringe filtration. Serial two fold dilutions were prepared from this for carrying out cytotoxic studies.
# HepG2 (Human Hepatocyte) cell line was procured from National Centre for Cell Sciences (NCCS), Pune, India. Stock cells were cultured in DMEM supplemented with 10% inactivated Fetal Bovine Serum (FBS), penicillin (100 IU/ml), streptomycin (100 μg/ml) and amphotericin B (5 μg/ml) in an humidified atmosphere of 5% CO2 at 37° C. until confluent. The cells were dissociated with TPVG solution (0.2% trypsin, 0.02% EDTA, 0.05% glucose in PBS). The stock cultures were grown in 25 cm2 culture flasks and all experiments were carried out in 96 microtitre plates (Tarsons India Pvt. Ltd., Kolkata, India).
# The monolayer cell culture was trypsinized and the cell count was adjusted to 100,000 cells/ml using medium containing 10% FBS. To each well of the 96 well microtitre plate, 0.1 ml of the diluted cell suspension was added. […]
Compound,TNF-Alpha (TNF-Alpha) [pg/mL],Serum TNF-Alpha compared with positive control (G2) (TNF-Alpha),Percentage inhibition over control (serum TNF-Alpha) (TNF-Alpha) [%],Regulation in Terms of Folds (gene expression level of Nrf2 normalized to GAPDH) (Nrf2) [Folds],% inhibition of paw edema at 6th hr. [1] [%],paw edema compared with Positive control group (G2) [1],IL-6 (IL-6) [pg/mL],Serum interleukin-6 compared with positive control (G2) (IL-6),Percentage inhibition over control (serum IL-6) (IL-6) [%],"DNA fragmentation (HepG2 cells; HepG2, 250 μg/ml, 24 hrs)",other results
"CC(C)(N=NC(C)(C)C(=N)N)C(=N)N.Cl.Cl [AAPH, 2,2′-azobis(2-amidinopropane)dihydrochloride, reference compound]",,,,,,,,,,,"DNA fragmentation (HepG2 cells; HepG2, AAPH (1 mM)): showed a smear in the gel indicating the DNA fragmentation"
C[N+](C)(C)[C@@H](Cc1c[nH]c(=S)[nH]1)C(=O)[O-] [L-Ergothioneine],201.5 ± 1.96,significantly decreased,13.21,>1.0,35.08,significant decreases paw edema,85.25 ± 0.30,significantly decreased,15.74,did not exhibit any fragmentation of DNA,"inhibition at 62.5 µg/mL (HepG2 cell line; Homo sapiens, Test Conc. 62.5 μg/ml): 6.62 ± 0.88%; inhibition at 125 µg/mL (HepG2 cell line; Homo sapiens, Test Conc. 125 μg/ml): 11 ± 1.31%; inhibition at 250 µg/mL (HepG2 cell line; Homo sapiens, Test Conc. 250 μg/ml): 19 ± 1.05%; inhibition at 1000 µg/mL (HepG2 cell line; Homo sapiens, Test Conc. 1000 μg/ml): 30 ± 1.52%; IC50 (HepG2 cell line; Homo sapiens, concentration needed to inhibit cell growth by 50%, read-out: CTC 50 in μg/ml): > 1000 µg/mL"
Nicotinamide mononucleotide chloride,185.2 ± 4.37,significantly decreased,20.18,>1.0,40.80,significant decreases paw edema,79.55 ± 0.95,significantly decreased,21.34,did not exhibit any fragmentation of DNA,% Inhibition (HepG2 cell line; Test Conc. 62.5 μg/ml): 5.26 ± 1.5%; % Inhibition (HepG2 cell line; Test Conc. 125 μg/ml): 11.15 ± 3.32%; % Inhibition (HepG2 cell line; Test Conc. 250 μg/ml): 17.56 ± 1.16%; % Inhibition (HepG2 cell line; Test Conc. 500 μg/ml): 24.19 ± 1.59%; % Inhibition (HepG2 cell line; Test Conc. 1000 μg/ml): 31.49 ± 0.79%
